Assay results reported in US7300946B2, “N-(substituted arylmethyl)-4-(disubstituted methyl) piperidines and pyridines” (Bayer CropScience AG, priority 2002, dated 2007).

Tested on: tobacco budworm (Heliothis virescens [Fabricius])
Assay: surface-treated diet test against the tobacco budworm
Format: in vivo
Details: tobacco budworm second instar larvae, surface-treated diet, 0.25 millimoles of candidate insecticide on the surface of the diet, five-day exposure; for Percent Mortality: compared to total number of insects infested; for Percent Growth Inhibition: inhibition of insect weight relative to untreated controls
In short: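 Wheat germ artificial diet surface-treated with 40 µL of 50 mM DMSO stock diluted 1:7 in 1:1 water/acetone (0.25 millimolar on diet), or sub-multiples for rate tests. One second-instar larva per well, 25° C, 60% RH, 5 days; percent weight inhibition vs DMSO controls and percent mortality.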

| SMILES | Percent Mortality | Percent Growth Inhibition |
| --- | --- | --- |
| CCn1nnc(-c2ccc(CN3CCC(C(OC(=O)Nc4ccc(C(F)(F)F)cc4)c4cc(F)cc(F)c4)CC3)cc2)n1 (stereo not shown) [Compound 594] | 100% | 100% |
| CCn1nnc(-c2ccc(CN3CCC(C(OC(=O)Nc4ccc(Cl)cc4)c4ccc(C)cc4)CC3)cc2)n1 (stereo not shown) [Compound 595] | 100% | 100% |
| CCn1nnc(-c2ccc(CN3CCC(C(OC(=O)Nc4ccc(Cl)c(Cl)c4)c4ccc(C)cc4)CC3)cc2)n1 (stereo not shown) [Compound 596] | 100% | 100% |
| CCn1nnc(-c2ccc(CN3CCC(C(OC(=O)Nc4ccc(F)c(F)c4)c4ccc(C)cc4)CC3)cc2)n1 (stereo not shown) [Compound 597] | 100% | 100% |
| CCn1nnc(-c2ccc(CN3CCC(C(OC(=O)Nc4cc(F)cc(F)c4)c4ccc(C)cc4)CC3)cc2)n1 (stereo not shown) [Compound 598] | 100% | 100% |
| CCn1nnc(-c2ccc(CN3CCC(C(OC(=O)Nc4cccc(C(F)(F)F)c4)c4ccc(C)cc4)CC3)cc2)n1 (stereo not shown) [Compound 599] | 100% | 100% |
| CCn1nnc(-c2ccc(CN3CCC(C(OC(=O)Nc4ccc(C(F)(F)F)cc4)c4ccc(C)cc4)CC3)cc2)n1 (stereo not shown) [Compound 600] | 100% | 100% |
| CCn1nnc(-c2ccc(CN3CCC(C(OC(=O)Nc4ccc(Cl)cc4)c4ccc(OC)cc4)CC3)cc2)n1 (stereo not shown) [Compound 601] | 100% | 100% |
| CCn1nnc(-c2ccc(CN3CCC(C(OC(=O)Nc4ccc(Cl)c(Cl)c4)c4ccc(OC)cc4)CC3)cc2)n1 (stereo not shown) [Compound 602] | 100% | 100% |
| CCn1nnc(-c2ccc(CN3CCC(C(OC(=O)Nc4ccc(F)c(F)c4)c4ccc(OC)cc4)CC3)cc2)n1 (stereo not shown) [Compound 603] | 100% | 100% |
| CCn1nnc(-c2ccc(CN3CCC(C(OC(=O)Nc4cc(F)cc(F)c4)c4ccc(OC)cc4)CC3)cc2)n1 (stereo not shown) [Compound 604] | 100% | 100% |
| CCn1nnc(-c2ccc(CN3CCC(C(OC(=O)Nc4cccc(C(F)(F)F)c4)c4ccc(OC)cc4)CC3)cc2)n1 (stereo not shown) [Compound 605] | 100% | 100% |
| CCn1nnc(-c2ccc(CN3CCC(C(OC(=O)Nc4ccc(C(F)(F)F)cc4)c4ccc(OC)cc4)CC3)cc2)n1 (stereo not shown) [Compound 606] | 100% | 100% |
| CCn1nnc(-c2ccc(CN3CCC(C(OC(=O)Nc4ccc(-c5ccccc5)cc4)c4ccc(OC)cc4)CC3)cc2)n1 (stereo not shown) [Compound 607] | 100% | 100% |
| CCn1nnc(-c2ccc(CN3CCC(C(OC(=O)Nc4ccc(Cl)cc4)c4ccc(OC)c(OC)c4)CC3)cc2)n1 (stereo not shown) [Compound 608] | 83% | 100% |
| CCn1nnc(-c2ccc(CN3CCC(C(OC(=O)Nc4cc(F)cc(F)c4)c4ccc(OC)c(OC)c4)CC3)cc2)n1 (stereo not shown) [Compound 609] | 33% | 100% |

| SMILES | Percent Mortality | Percent Growth Inhibition |
| --- | --- | --- |
| CCn1nnc(-c2ccc(CN3CCC(C(OC(=O)Nc4cc(F)cc(F)c4)c4ccc(C(F)(F)F)cc4)CC3)cc2)n1 (stereo not shown) [Compound 610] | 100% | 100% |
| CCn1nnc(-c2ccc(CN3CCC(C(OC(=O)Nc4ccc(Cl)cc4)c4ccc(-c5ccccc5)cc4)CC3)cc2)n1 (stereo not shown) [Compound 611] | 83% | 100% |
| CCn1nnc(-c2ccc(CN3CCC(C(OC(=O)Nc4ccc(Cl)c(Cl)c4)c4ccc(-c5ccccc5)cc4)CC3)cc2)n1 (stereo not shown) [Compound 612] | 0% | 48% |
| CCn1nnc(-c2ccc(CN3CCC(C(OC(=O)Nc4ccc(F)c(F)c4)c4ccc(-c5ccccc5)cc4)CC3)cc2)n1 (stereo not shown) [Compound 613] | 83% | 100% |
| CCn1nnc(-c2ccc(CN3CCC(C(OC(=O)Nc4cc(F)cc(F)c4)c4ccc(-c5ccccc5)cc4)CC3)cc2)n1 (stereo not shown) [Compound 614] | 16% | 99% |
| CCn1nnc(-c2ccc(CN3CCC(C(OC(=O)Nc4ccc(C(F)(F)F)cc4)c4ccc(-c5ccccc5)cc4)CC3)cc2)n1 (stereo not shown) [Compound 615] | 17% | 72% |
| CCn1nnc(-c2ccc(CN3CCC(C(OC(=O)Nc4ccc(Cl)cc4)c4ccc(Oc5ccccc5)cc4)CC3)cc2)n1 (stereo not shown) [Compound 616] | 100% | 100% |
| CCn1nnc(-c2ccc(CN3CCC(C(OC(=O)Nc4ccc(Cl)c(Cl)c4)c4ccc(Oc5ccccc5)cc4)CC3)cc2)n1 (stereo not shown) [Compound 617] | 0% | 14% |
| CCn1nnc(-c2ccc(CN3CCC(C(OC(=O)Nc4ccc(F)c(F)c4)c4ccc(Oc5ccccc5)cc4)CC3)cc2)n1 (stereo not shown) [Compound 618] | 100% | 100% |
| CCn1nnc(-c2ccc(CN3CCC(C(OC(=O)Nc4cc(F)cc(F)c4)c4ccc(Oc5ccccc5)cc4)CC3)cc2)n1 (stereo not shown) [Compound 619] | 17% | 100% |
| CCn1nnc(-c2ccc(CN3CCC(C(OC(=O)Nc4cccc(C(F)(F)F)c4)c4ccc(Oc5ccccc5)cc4)CC3)cc2)n1 (stereo not shown) [Compound 620] | 0% | 29% |
| CCn1nnc(-c2ccc(CN3CCC(C(OC(=O)Nc4ccc(-c5ccccc5)cc4)c4ccc(Oc5ccccc5)cc4)CC3)cc2)n1 (stereo not shown) [Compound 621] | 0% | 4% |
| CCn1nnc(-c2ccc(CN3CCC(C(OC(=O)Nc4ccc(Oc5ccccc5)cc4)c4ccc(Oc5ccccc5)cc4)CC3)cc2)n1 (stereo not shown) [Compound 622] | 0% | 4% |
| O=C(Nc1ccc(Cl)cc1)OC(c1ccc(C(F)(F)F)cc1)C1CCN(Cc2ccc(-c3ccccn3)cc2)CC1 (stereo not shown) [Compound 627] | 100% | 100% |
| O=C(Nc1cc(F)cc(F)c1)OC(c1ccc(C(F)(F)F)cc1)C1CCN(Cc2ccc(-c3ccccn3)cc2)CC1 (stereo not shown) [Compound 628] | 100% | 100% |
| O=C(Nc1ccc(Cl)cc1)OC(c1ccc(Cl)cc1)C1CCN(Cc2ccc(Oc3ccccn3)cc2)CC1 (stereo not shown) [Compound 629] | 100% | 100% |
